From ChEMBL document CHEMBL4196029, “New MD2 inhibitors derived from curcumin with improved anti-inflammatory activity” (Eur J Med Chem, 2018) come the findings set out here.

Series [1] deals with Peritoneal macrophage. The series can be described thus: Anti-inflammatory activity in C57BL/6 mouse primary peritoneal macrophages assessed as inhibition of LPS-induced TNFalpha secretion at 10 uM preincubated for 30 mins followed by LPS addition measured after 24 hrs by ELISA relative to control. In kind it is functional. The following applies: for inhibition at 10 µM: C57BL/6, Peritoneal macrophage. On the technique in general: An ELISA detects its analyte on a solid surface through an enzyme-linked reagent.

The test system of series [2] is Peritoneal macrophage. The series can be described thus: Anti-inflammatory activity in C57BL/6 mouse primary peritoneal macrophages assessed as inhibition of LPS-induced TNFalpha secretion at 1 to 10 uM preincubated for 30 mins followed by LPS addition measured after 24 hrs by ELISA. In kind it is functional, cell-based.
Series [3] has as its system Peritoneal macrophage. The series can be described thus: Anti-inflammatory activity in C57BL/6 mouse primary peritoneal macrophages assessed as inhibition of LPS-induced IL-6 secretion at 1 to 10 uM preincubated for 30 mins followed by LPS addition measured after 24 hrs by ELISA. In kind it is functional, cell-based.
In series [4] the test system is Peritoneal macrophage. The series can be described thus: Anti-inflammatory activity in C57BL/6 mouse primary peritoneal macrophages assessed as inhibition of LPS-induced IL-6 secretion at 10 uM preincubated for 30 mins followed by LPS addition measured after 24 hrs by ELISA relative to control. In kind it is functional. To be noted: for inhibition at 10 µM: C57BL/6, Peritoneal macrophage.

Series [5] has as its system Peritoneal macrophage. The series can be described thus: Anti-inflammatory activity in C57BL/6 mouse primary peritoneal macrophages assessed as inhibition of LPS-induced IL-6 secretion at 2.5 uM preincubated for 30 mins followed by LPS addition measured after 24 hrs by ELISA relative to control. In kind it is functional. The following applies: C57BL/6, Peritoneal macrophage.

Series [6] has as its system Peritoneal macrophage. The series can be described thus: Anti-inflammatory activity in C57BL/6 mouse primary peritoneal macrophages assessed as inhibition of LPS-induced TNFalpha secretion at 5 uM preincubated for 30 mins followed by LPS addition measured after 24 hrs by ELISA relative to control. In kind it is functional. The following applies: C57BL/6, Peritoneal macrophage.

Series [7] is described as follows: Chemical stability in pH 7.4 phosphate buffer at 20 uM measured at 5 mins time intervals for 25 mins by UV absorbance spectroscopic method. In kind it is physicochemical. To be noted: pH 7.4, 25 min.

The source made the active and inactive calls. The rule behind the calls is not given here. Bounds are passed on as bounds.

As for `CN1C/C(=C\c2ccccc2Br)C(=O)/C(=C/c2ccccc2Br)C1`, the inhibition at 10 µM with Peritoneal macrophage [1] and with Peritoneal macrophage [4] was greater than 80% throughout. Also, the inhibition result in the series on Peritoneal macrophage [2] and in the series on Peritoneal macrophage [3] was “Active” each time. Further, the inhibition at 2.5 µM in the series on Peritoneal macrophage [5] is greater than 50%. In addition, the inhibition at 5 µM in the series with Peritoneal macrophage [6] is greater than 50%. Also, the Stability entry in series [7] was “Unstable”.
`CCN1C/C(=C\c2cccc(OC)c2OC)C(=O)/C(=C/c2cccc(OC)c2OC)C1`: the inhibition at 10 µM in the series on Peritoneal macrophage [1] and in the series on Peritoneal macrophage [4] was greater than 80% each time. For the same compound, the inhibition entry in the series with Peritoneal macrophage [2] and with Peritoneal macrophage [3] was “Active” in each case. In the series on Peritoneal macrophage [5], the inhibition at 2.5 µM is greater than 50%. The inhibition at 5 µM in the series on Peritoneal macrophage [6] is greater than 50%. For the same compound, the Stability result in series [7] was “Stable”.
Consider `CCN1C/C(=C\c2ccc(F)cc2)C(=O)/C(=C/c2ccc(F)cc2)C1`, for which the inhibition at 10 µM with Peritoneal macrophage [1] and in the series on Peritoneal macrophage [4] was greater than 80% each time. For the same compound, the inhibition entry in the series with Peritoneal macrophage [2] and in the series with Peritoneal macrophage [3] was “Active” throughout. In addition, the inhibition at 2.5 µM in the series with Peritoneal macrophage [5] was greater than 50%. Moreover, the inhibition at 5 µM in the series on Peritoneal macrophage [6] was greater than 50%.
Consider `COc1ccc(/C=C2\COC/C(=C\c3ccc(OC)c(OC)c3)C2=O)cc1OC`, for which the inhibition entry with Peritoneal macrophage [1] and with Peritoneal macrophage [4] was “inactive” each time.
As for `COc1cccc(/C=C2\COC/C(=C\c3cccc(OC)c3OC)C2=O)c1OC`, the inhibition result in the series with Peritoneal macrophage [1] and in the series with Peritoneal macrophage [4] was “Active” each time.
For the compound `O=C1/C(=C/c2ccccc2Br)COC/C1=C\c1ccccc1Br`, the inhibition result with Peritoneal macrophage [1] and in the series with Peritoneal macrophage [4] was “inactive” throughout.
On to `O=C1/C(=C/c2cccc(O)c2)COC/C1=C\c1cccc(O)c1`, for which the inhibition at 10 µM in the series with Peritoneal macrophage [1] and in the series with Peritoneal macrophage [4] was greater than 80% each time. The inhibition result with Peritoneal macrophage [2] and in the series with Peritoneal macrophage [3] was “Active” each time. The inhibition at 2.5 µM in the series with Peritoneal macrophage [5] was greater than 50%. The inhibition at 5 µM in the series on Peritoneal macrophage [6] was greater than 50%. Further, the Stability result in series [7] is “Stable”.
For `COc1cc(/C=C/C(=O)CC(=O)/C=C/c2ccc(O)c(OC)c2)ccc1O` [CURCUMIN], the inhibition entry with Peritoneal macrophage [1] and in the series with Peritoneal macrophage [4] was “Active” throughout. Moreover, the Stability entry in series [7] is “Unstable”.
For the compound `COc1ccc(/C=C2\COC/C(=C\c3ccc(OC)cc3)C2=O)cc1`, the inhibition entry with Peritoneal macrophage [1] and in the series with Peritoneal macrophage [4] was “inactive” in each case.
In the case of `COc1cc(/C=C2\CSC/C(=C\c3cc(OC)c(OC)c(OC)c3)C2=O)cc(OC)c1OC`, the inhibition at 10 µM with Peritoneal macrophage [1] is 25%; in the series on Peritoneal macrophage [4], 60%.
Take `COc1ccccc1/C=C1\COC/C(=C\c2ccccc2OC)C1=O`: the inhibition entry with Peritoneal macrophage [1] and with Peritoneal macrophage [4] was “Active” in each case.

Usually inhibition stands for the drop in the measured response relative to a control, in per cent.
